Results taken from the supplement of paper PMC4862054.

What was measured:
Experiment in all cases: normalised viability (% of control), CellTiter-Blue; higher = more viable cells (about 100 = DMSO control)
HDQ-P1 [1] = details: 1000 nM; incubation time: 72 h
Procedure: (§1)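 DSRT, CellTiter-Blue viability, 72 h incubation. Signal is normalised to DMSO and benzethonium chloride controls. Value is the normalised response at dose 7.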

DU-4475 [2] = details: 1000 nM; incubation time: 72 h
Procedure: as §1

CAL-51 [3] = details: 1000 nM; incubation time: 72 h
Procedure: as §1

CAL-85-1 [4] = details: 1000 nM; incubation time: 72 h
Procedure: as §1

MDA-MB-453 [5] = details: 1000 nM; incubation time: 72 h
Procedure: as §1

CAL-148 [6] = details: 1000 nM; incubation time: 72 h
Procedure: as §1

DU-4475 [7] = details: 3000 nM; incubation time: 72 h
Procedure: (§2)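 DSRT, CellTiter-Blue viability, 72 h incubation. Signal is normalised to DMSO and benzethonium chloride controls. Value is the normalised response at dose 8.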

CAL-85-1 [8] = details: 3000 nM; incubation time: 72 h
Procedure: as §2

CAL-148 [9] = details: 3000 nM; incubation time: 72 h
Procedure: as §2

MDA-MB-231 = details: 1000 nM; incubation time: 72 h
Method in brief: (§3)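 Vehicle (100) and a positive kill control (0) anchored the normalisation of each plate, and Z'-factor was used for quality control. Breast cancer cell lines in 20 µl suspension were incubated 72 h over compound in 5 µl medium in 384-well plates, followed by CellTiter-Blue at 560/590 nm. The value is normalised viability at a single listed concentration of the series.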

HDQ-P1 [10] = details: 30 nM; incubation time: 72 h
Method in brief: as §3

DU-4475 [11] = details: 30 nM; incubation time: 72 h
Method in brief: as §3

CAL-51 [12] = details: 30 nM; incubation time: 72 h
Method in brief: as §3

MDA-MB-468 = details: 1000 nM; incubation time: 72 h
Method in brief: as §3

Hs578T = details: 1000 nM; incubation time: 72 h
Method in brief: as §3

SK-BR-3 = details: 1000 nM; incubation time: 72 h
Method in brief: as §3

BT-549 = details: 1000 nM; incubation time: 72 h
Method in brief: as §3

CAL-120 = details: 1000 nM; incubation time: 72 h
Method in brief: as §3

CAL-85-1 [13] = details: 30 nM; incubation time: 72 h
Method in brief: as §3

HCC1599 = details: 1000 nM; incubation time: 72 h
Method in brief: as §3

HCC1937 = details: 1000 nM; incubation time: 72 h
Method in brief: as §3

BT-474 = details: 1000 nM; incubation time: 72 h
Method in brief: as §3

MDA-MB-453 [14] = details: 30 nM; incubation time: 72 h
Method in brief: as §3

MFM-223 = details: 1000 nM; incubation time: 72 h
Method in brief: as §3

HCC1143 = details: 1000 nM; incubation time: 72 h
Method in brief: as §3

CAL-148 [15] = details: 30 nM; incubation time: 72 h
Method in brief: as §3

HDQ-P1 [16] = details: 10000 nM; incubation time: 72 h
Procedure: (§4)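 DSRT, CellTiter-Blue viability, 72 h incubation. Signal is normalised to DMSO and benzethonium chloride controls. Value is the normalised response at dose 9.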

DU-4475 [17] = details: 10000 nM; incubation time: 72 h
Procedure: as §4

CAL-51 [18] = details: 10000 nM; incubation time: 72 h
Procedure: as §4

CAL-85-1 [19] = details: 10000 nM; incubation time: 72 h
Procedure: as §4

MDA-MB-453 [20] = details: 10000 nM; incubation time: 72 h
Procedure: as §4

CAL-148 [21] = details: 10000 nM; incubation time: 72 h
Procedure: as §4

SMILES	normalised viability (HDQ-P1 [1]) [%]	normalised viability (DU-4475 [2]) [%]	normalised viability (CAL-51 [3]) [%]	normalised viability (CAL-85-1 [4]) [%]	normalised viability (MDA-MB-453 [5]) [%]	normalised viability (CAL-148 [6]) [%]	normalised viability (DU-4475 [7]) [%]	normalised viability (CAL-85-1 [8]) [%]	normalised viability (CAL-148 [9]) [%]	normalised viability (MDA-MB-231) [%]	normalised viability (HDQ-P1 [10]) [%]	normalised viability (DU-4475 [11]) [%]	normalised viability (CAL-51 [12]) [%]	normalised viability (MDA-MB-468) [%]	normalised viability (Hs578T) [%]	normalised viability (SK-BR-3) [%]	normalised viability (BT-549) [%]	normalised viability (CAL-120) [%]	normalised viability (CAL-85-1 [13]) [%]	normalised viability (HCC1599) [%]	normalised viability (HCC1937) [%]	normalised viability (BT-474) [%]	normalised viability (MDA-MB-453 [14]) [%]	normalised viability (MFM-223) [%]	normalised viability (HCC1143) [%]	normalised viability (CAL-148 [15]) [%]	normalised viability (HDQ-P1 [16]) [%]	normalised viability (DU-4475 [17]) [%]	normalised viability (CAL-51 [18]) [%]	normalised viability (CAL-85-1 [19]) [%]	normalised viability (MDA-MB-453 [20]) [%]	normalised viability (CAL-148 [21]) [%]
CN1CCN(CCOc2cc(OC3CCOCC3)c3c(Nc4c(Cl)ccc5c4OCO5)ncnc3c2)CC1 [Saracatinib]	40.6	102	60.9	51.4	86.5	83.9	120	29.1	65.9	61.6	107	96.3	103	87.2	93.8	90	85.9	71.9	82.6	98	85	85.2	101	102	70.6	78.7	21.9	133	38.4	23.5	35.6	62
CN(C)C[C@@H]1CCn2cc(c3ccccc32)C2=C(C(=O)NC2=O)c2cn(c3ccccc23)CCO1 [Ruboxistaurin]	67.1	73.9	76.8	122	102	101	61.1	106	79.4	88.2	84.3	92.3	101	85.2	99.8	86.6	87.6	110	105	91.3	74	93.1	99.9	80.8	109	116	22.5	1.01	27.4	84.3	0.78	24.3
COc1ccc(-c2ccc3c(N4CCOC[C@@H]4C)nc(N4CCOC[C@@H]4C)nc3n2)cc1CO [AZD8055]	27.2	15.2	10.8	23.8	14.4	5.6	14.1	18.6	5.57	23.9	53.1	75.8	47.5	29.1	23.7	13	18.7	13.9	56.9	46.4	32.6	26.9	33.6	18	32.5	53	22.7	8.6	6.13	18.8	12.2	3.64
